In this data set the test system is HT-29 human colon tumors. The procedure: Human Tumor Xenograft Study. An HT-29 human colon cancer cell line was purchased from ATCC (Manassas, Va.). Cells were cultured in DMEM (Dulbecco's Modified Eagle's Medium) from GIBIOBRL (Grand Island, N.Y.) with 10% fetal bovine serum (FBS) supplemented with L-glutamine and Penicillin/Streptomycin. The tumor cells were harvested when cultures reached 80-90% confluence. The supernatants were discarded and the cell pellets were suspended to 1×10^8 cells/ml in DMEM medium without FBS. HT-29 cells (5×10^6) were implanted intradermally on the back of each mouse. Tumor size was monitored by measuring the length (L), width (W), and height (H) of each tumor and calculating tumor volume (Vol=½×4/3π×(L/2)×(W/2)×H).
Mice bearing human tumor cell xenografts were treated with PG490-88 IP daily for 5 days per week. The compound was administered as the sodium salt. CPT-11 was administered IV twice per week. 5-FU was given IP daily for 5 days per week. The stock solutions of each therapeutic agent were diluted in 0.9% NaCl for dosing. The agents were given to mice at 100 μl per 10 g of mouse body weight. Mice were dosed for two weeks, and 0.9% NaCl was used as the vehicle control. Tumor volume was monitored, and toxicity of the chemotherapeutic treatment was monitored by weighing the mice every day.

Like-named read-outs stand apart in the source and are kept apart here.

The text below walks through data of patent US6620843B2, “Anticancer treatment using triptolide prodrugs” (priority 2001, dated 2003).

`CCc1c2c(nc3ccc(OC(=O)N4CCC(N5CCCCC5)CC4)cc13)-c1cc3c(c(=O)n1C2)COC(=O)[C@]3(O)CC` [CPT-11, irinotecan, reference compound]: the “tumor growth inhibition (in words)” value (CPT-11 22 mg/kg) is listed as “slight to moderate”.
Turning to `O=c1[nH]cc(F)c(=O)[nH]1` [5-FU, 5-fluorouracil, reference compound], the “tumor growth inhibition (in words)” value (5-FU 20 mg/kg) is listed as “only slightly inhibited tumor growth”. Moreover, the “percent increase in mean tumor volume at day 16” value (5-FU 20 mg/kg IP daily 5 days per week, day 16, control group 721%) was determined as 470%. In addition, where the note is “mouse, in vivo”, the “toxicity in tumor-bearing mice” value is “showed signs of toxicity”.
For `CC(C)[C@]12O[C@H]1[C@@H]1O[C@]13[C@]1(O[C@H]1C[C@H]1C4=C(CC[C@@]13C)C(=O)OC4)[C@@H]2OC(=O)CCC(=O)O` [PG490-88, triptolide 14-succinate], the “tumor growth inhibition (in words)” value is “slightly inhibited” (0.125 mg/kg, by day 16); “moderate inhibition” (0.25 mg/kg, by day 16); “strongly inhibited tumor growth and induced tumor regression” (0.75 mg/kg, by day 16). The “tumor growth inhibition, dose dependence (in words)” value (0.125-0.75 mg/kg) is listed as “inhibited HT-29 tumor growth in a dose-dependent manner”. Also, the “percent increase in mean tumor volume at day 16” value is on record as 462% (PG490-88 0.125 mg/kg IP daily 5 days per week, day 16 vs initial value, vehicle control 721%) and 131% (PG490-88 0.25 mg/kg IP daily 5 days per week, day 16 vs initial value, vehicle control 721%). In addition, the “percent decrease in mean tumor volume at day 16 from the initial value” (PG490-88 0.75 mg/kg IP daily 5 days per week, day 16) came out at 54%. The “mean tumor volume at day 9 (in words)” value (PG490-88 0.75 mg/kg, day 9) is listed as “decreased from the day 5 value to approximately the initial value”.
